Data taken from patent US20240269220A1, “USES OF BLETILLA FORMOSANA EXTRACT FOR THE TREATMENT OF DISEASES ASSOCIATED WITH DYSREGULATED ACTIVATION OF NEUTROPHILS” (Chang Gung University, priority 2022, published 2024).

tested on: fMLF/CB-activated human neutrophils; experiment: Extracellular superoxide anion production (ferricytochrome c reduction) in fMLF/CB-activated human neutrophils; format: cell-based; conditions: Neutrophil, chemical components of the extract, read-out: Superoxide anions IC50
Experimental: (§1) The study was conducted with the approval of the Institutional Review Board of Chang Gung Memorial Hospital in accordance with the Declaration of Helsinki. After written informed consent was obtained, whole blood samples were drawn from healthy individuals aged 20-30 years who had not taken any medication within the previous 5 weeks. Neutrophils were then isolated using the standard procedures for dextran sedimentation, Ficoll-Hypaque gradient centrifugation, and hypotonic lysis of erythrocytes. The isolated neutrophils were then suspended in Ca^2+-free HBSS (pH 7.4) and stored at 4° C. until use.
Extracellular superoxide anion production in activated neutrophils was assessed through the reduction of ferricytochrome c. After incubating them with Ca^2+(1 mM) and ferricytochrome c (0.6 mg/mL) at 37° C., the isolated human neutrophils (6×10^5 cells/mL) were then incubated with DMSO or the present B. formosana extract for 5 min. The cells were pretreated with cytochalasin B (CB, 1 or 2 μg/mL) for 3 min and stimulated with fMLF. The change in absorbance at 550 nm was detected continuously using a spectrophotometer (U-3010, Hitachi, Tokyo, Japan), and superoxide anion levels were calculated using a method described previously (Hwang et al., 2003 Mol. Pharmacol. 64(6), 1419-1427).

| IC50 | SMILES |
| --- | --- |
| 4.63 ± 0.54 µM | COc1cccc(CCc2cc(O)cc(OC)c2)c1 [BF8-4-2, 3′,5-dimethoxy-3-hydroxybibenzyl] |
| 1.86 ± 0.21 µM | COc1cc(O)cc(CCc2ccccc2)c1 [BF8-4-4, 3-hydroxy-5-methoxybibenzyl] |
| 4.64 ± 0.23 µM | COc1cc(CCc2cccc(O)c2)cc(OC)c1 [BF8-4-3, 3,5-dimethoxy-3′-hydroxybibenzyl] |
| 4.3 ± 0.5 µM | COc1cc(O)cc(CCc2cccc(O)c2)c1 [Batatasin III, 3,3′-dihydroxy-5-methoxybibenzyl] |
| 0.66 ± 0.12 µM | COc1cc(O)c(Cc2ccc(O)cc2)c2c1-c1ccc(O)cc1CC2 [Orchidble, 9,10-dihydro-1-[(4-hydroxyphenyl)methyl]-4-methoxy-2,7-phenanthrenediol] |

tested on: fMLF/CB-activated human neutrophils; experiment: Neutrophil elastase release in fMLF/CB-activated human neutrophils; format: cell-based; conditions: chemical components of the extract
Experimental: as §1
Human neutrophils (6×10^5 cells/mL) were incubated with DMSO or the present B. formosana extract after treatment with 1 mM CaCl2 and 100 μM NE substrate (Methoxysuccinyl-Ala-Ala-Pro-Val-p-nitroanilide) at 37° C. for 5 min. Cells were stimulated with fMLF (0.1 μM)/cytochalasin B (CB) (0.5 μg/mL) for 10 min before determination of NE release by measuring the change of absorbance at 405 nm in a spectrophotometer.

| IC50 | SMILES |
| --- | --- |
| > 10 µM | COc1cccc(CCc2cc(O)cc(OC)c2)c1 [BF8-4-2, 3′,5-dimethoxy-3-hydroxybibenzyl] |
| 2.71 ± 0.16 µM | COc1cc(O)cc(CCc2ccccc2)c1 [BF8-4-4, 3-hydroxy-5-methoxybibenzyl] |
| 7.41 ± 0.5 µM | COc1cc(CCc2cccc(O)c2)cc(OC)c1 [BF8-4-3, 3,5-dimethoxy-3′-hydroxybibenzyl] |
| > 10 µM | COc1cc(O)cc(CCc2cccc(O)c2)c1 [Batatasin III, 3,3′-dihydroxy-5-methoxybibenzyl] |
| 6.26 ± 1.19 µM | COc1cc(O)c(Cc2ccc(O)cc2)c2c1-c1ccc(O)cc1CC2 [Orchidble, 9,10-dihydro-1-[(4-hydroxyphenyl)methyl]-4-methoxy-2,7-phenanthrenediol] |
